# Source: patent US6150361A, “Triazineone compounds for treating diseases due to sarcosystis, neospora and toxoplasma” (Bayer Corporation, priority 1998, dated 2000)
# Values joined by “and” are separate entries in the source; they are usually repeats but may differ in a detail not shown here. Equal entries are not always repeated.
# Key:
# Neospora caninum NC-1 = assay: Microtiter Monolayer Disruption Assay (MMDA), Neospora caninum; format: cell-based, Neospora caninum strain NC-1; conditions: BT cells
# Protocol: (§1) In order to determine the scope of protection provided by Ponazuril, in vitro testing was conducted. The following strains of parasites were evaluated for their sensitivity to this compound: Strain SN3 of Sarcocystis neurona; strain SF1 of Sarcocystis falcatula; strain RH of Toxoplasma gondii; and the NC-1 strain of Neospora caninum. […]
# (§2) Bovine turbinate (BT) cells were used for all in vitro studies. Cells were grown to confluency in 25 cm^2 flasks in RMPI 1640 media supplemented with 10% v/v fetal bovine serum (FBS), 100 Units penicillin (G/mL), […] streptomycin/mL and 5×10^-2 mM 2-mercpatoethanol. After cell confluence was obtained, cells were maintained in the same media with reduced FBS (2% v/v). Cell cultures were incubated at 37 C. in a humidified atmosphere containing 5% carbon dioxide and 95% air.
# (§3) For growth of parasites, BT cell monolayers were infected with parasites and examined with an inverted microscope for the development of lesions (cytopathic effect, "CPE") or the presence of many extracellular merozoites. Once lesions were observed, or many extracellular parasites were present, the monolayer was scraped with the tip of a 5 mL pipette and 1 to 3 drops of the merozoite-containing fluid was transferred to two flasks of fresh BT cells. Merozoites of S. neurona and S. falcatula were passaged in this manner every 5 to 10 days while the tachyzoites of T. gondii and N. caninum were passaged every 3 to 4 days.
# (§4) The assay used to determine the effectiveness of Ponazuril was the Microtiter Monolayer Disruption Assay (MMDA). This assay was used to determine if the parasites or compound were toxic for BT cells. Flat bottomed 96-well microtiter plates were inoculated with BT cells and the resulting monolayers were used to determine the effects of Toltrazuril and Ponazuril on merozoite production as measured by CPE (plaque formation). […]
# [1] = Pharmacokinetics of a single oral dose of Toltrazuril in horses (blood levels); format: in vivo; conditions: single oral dose of Toltrazuril 10 mg/kg
# Protocol: A pharmacokinetic study was conducted in horses comparing blood levels of Toltrazuril, Ponazuril and Toltrazuril Sulfoxide at various times post a single dose of Toltrazuril. All horses received a single dose of 10 mg/kg, which was administered orally as a suspension. Blood samples were drawn at the time of treatment (0) and at 0.25, 0.5, 1, 2, 4, 6, 12, 24, 48 and 72 hours post treatment. […] This was an indication that Ponazuril, alone, would produce acceptable blood levels that are envisioned to pass the blood-brain barrier, a characteristic required to treat neurological diseases such as those caused by Sarcocystis neurona, Toxoplasma gondii, Neospora caninum and Neospora
# Toxoplasma gondii = assay: Microtiter Monolayer Disruption Assay (MMDA), Toxoplasma gondii; format: cell-based, Toxoplasma gondii strain RH; conditions: BT cells
# Protocol: as §1, §2, §3, §4
# [2] = Drug levels in cerebral spinal fluid after repeated doses of Toltrazuril in horses; format: in vivo; parameters: Drug level in Cerebral Spinal Fluid, Day 10 / AVG drug level in Cerebral Spinal Fluid, Day 10: unit not given here; conditions: for AVG drug level in Cerebral Spinal Fluid, Day 10: group average; for Drug level in Cerebral Spinal Fluid, Day 10: individual horse
# Protocol: (§5) This experiment was conducted in order to determine whether triazineones such as Toltrazuril can pass the blood-brain barrier. Normal horses were divided into three groups of three horses per group. Group 1 horses received Toltrazuril administered orally as a 5% suspension at a dose level of 2.5 mg/Kg. Group 2 horses received Toltrazuril administered orally as a 5% suspension at a dose level of 5.0 mg/Kg. Group 3 horses received Toltrazuril administered orally as a 5% suspension at a dose level of 7.5 mg/Kg. The dosing was repeated daily for 10 days. Blood samples were drawn at 48, 96 and 240 hours and the concentration of Toltrazuril, Toltrazuril sulfoxide and Ponazuril in the serum was measured. Ten days after the start of the treatment (Day 10), a sample of cerebral spinal fluid was removed from each horse and the concentrations of Toltrazuril, Toltrazuril Sulfoxide and Ponazuril were again measured in these samples. The concentrations of Toltrazuril, Toltrazuril Sulfoxide and Ponazuril in the serum and cerebral spinal fluid are reported in TABLES 5a and 5b.
# Sarcocystis falcatula = assay: Microtiter Monolayer Disruption Assay (MMDA), Sarcocystis falcatula; format: cell-based, Sarcocystis falcatula strain SF1; conditions: BT cells
# Protocol: In order to determine the scope of protection provided by Ponazuril, in vitro testing was conducted. The following strains of parasites were evaluated for their sensitivity to this compound: Strain SN3 of Sarcocystis neurona; strain SF1 of Sarcocystis falcatula; strain RH of Toxoplasma gondii; and the NC-1 strain of Neospora caninum. Ponazuril was tested at 2 concentrations (1 μg/mL and 10 μg/mL).
# as §2, §3
# The assay used to determine the effectiveness of Ponazuril was the Microtiter Monolayer Disruption Assay (MMDA). This assay was used to determine if the parasites or compound were toxic for BT cells. Flat bottomed 96-well microtiter plates were inoculated with BT cells and the resulting monolayers were used to determine the effects of Toltrazuril and Ponazuril on merozoite production as measured by CPE (plaque formation). Monolayers were inoculated with parasites (S. neurona or S. falcatula at a count of 50,000/well, T. gondii at a level of 10,000/well, and N. caninum at 20,000/well. All wells were inoculated with the test compound 2 hours after infection. Untreated and […] monolayer wells served as parasite controls and uninfected agent treated BT cells served as toxicity controls. Each treatment was examined in replicates of 6. Each well was visually monitored daily and the assay was stopped when 90-100% of the untreated merozoite infected cells had lysed (90-100% CPE). All wells of the plates were rinsed in Phosphate Buffered Saline (PBS) and fixed in 100% methanol for 5 minutes after which they were stained in crystal violet solution. […]
# [3] = Drug levels in serum after repeated doses of Toltrazuril in horses; format: in vivo; parameters: unit not given here; conditions: for AVG drug level in serum, 48 Hrs / AVG drug level in serum, 96 Hrs / AVG drug level in serum, 240 Hrs: group average; for Drug level in serum, 48 Hrs / Drug level in serum, 96 Hrs / Drug level in serum, 240 Hrs: individual horse
# Protocol: as §5
# [4] = 0.001 μg/mL, read-out: Percent Inhibition of Cell Destruction, 0.001 μg/mL
# [5] = 1.0 μg/mL, read-out: Percent Inhibition of Cell Destruction, 1.0 μg/mL
# [6] = 0.1 μg/mL, read-out: Percent Inhibition of Cell Destruction, 0.1 μg/mL
# [7] = Toltrazuril 2.5 mg/Kg oral daily for 10 days
# [8] = Toltrazuril 5.0 mg/Kg oral daily for 10 days
# [9] = Toltrazuril 7.5 mg/Kg oral daily for 10 days
smiles,measurement,setting,value
Cc1cc(-n2c(=O)[nH]c(=O)n(C)c2=O)ccc1Oc1ccc(S(=O)(=O)C(F)(F)F)cc1 [Ponazuril],inhibition at 0.001 µg/mL,Neospora caninum NC-1; [4],3%
same,inhibition at 0.01 µg/mL,"Neospora caninum NC-1; 0.01 μg/mL, read-out: Percent Inhibition of Cell Destruction, 0.01 μg/mL",13%
same,inhibition at 1 µg/mL,Neospora caninum NC-1; [5],100%
same,concentration at 0.25 h,"[1]; horse, blood, po, 10 mg/kg, suspension, 0.25 h post treatment, one value per horse (A-F), read-out: Concentration in mg/l of Blood, 0.25 hours",0.01 mg/L
same,concentration at 24 h,"[1]; horse, blood, po, 10 mg/kg, suspension, 24 h post treatment, one value per horse (A-F), read-out: Concentration in mg/l of Blood, 24 hours",0.324 mg/L
same,levels in serum/bloodstream of horses receiving Toltrazuril (in words),[1],relatively high levels
same,"Concentration in mg/l of Blood, 0.25 hours","[1]; suspension, 0.25 h post treatment, one value per horse (A-F), 10 mg/kg, 15 min",< 0.01 mg/L
same,"Concentration in mg/l of Blood, 6 hours","[1]; suspension, 6 h post treatment, one value per horse (A-F), 10 mg/kg, 360 min",0.061 mg/L
same,"Concentration in mg/l of Blood, 24 hours","[1]; suspension, 24 h post treatment, one value per horse (A-F), 10 mg/kg, 1440 min",0.255 mg/L and 0.315 mg/L and 0.231 mg/L and 0.192 mg/L
same,inhibition at 0.001 µg/mL,Toxoplasma gondii; [4],11%
same,inhibition at 0.1 µg/mL,Toxoplasma gondii; [6],100%
same,inhibition at 1 µg/mL,Toxoplasma gondii; [5],100%
same,"AVG drug level in Cerebral Spinal Fluid, Day 10",[2]; [7],0.09
same,"Drug level in Cerebral Spinal Fluid, Day 10",[2]; [7],0.09 and 0.07 and 0.11
same,"AVG drug level in Cerebral Spinal Fluid, Day 10",[2]; [8],0.16
same,"Drug level in Cerebral Spinal Fluid, Day 10",[2]; [8],0.12 and 0.14 and 0.21
same,"AVG drug level in Cerebral Spinal Fluid, Day 10",[2]; [9],0.22
same,"Drug level in Cerebral Spinal Fluid, Day 10",[2]; [9],0.23 and 0.17 and 0.27
same,concentration in the cerebral spinal fluid compared with Toltrazuril,[2]; after treatment of horses with Toltrazuril,essentially equivalent to the concentration of Toltrazuril itself
same,inhibition at 0.1 µg/mL,Sarcocystis falcatula; [6],61%
same,inhibition at 1 µg/mL,"Sarcocystis falcatula; 1 μg/mL, read-out: Percent Inhibition of Cell Destruction, 1 μg/mL",100%
same,inhibition at 5 µg/mL,"Sarcocystis falcatula; 5.0 μg/mL, read-out: Percent Inhibition of Cell Destruction, 5.0 μg/mL",100%
same,inhibition at 10 µg/mL,"Sarcocystis falcatula; 10 μg/mL, read-out: Percent Inhibition of Cell Destruction, 10 μg/mL",100%
same,"AVG drug level in serum, 48 Hrs",[3]; [7],1.41
same,"AVG drug level in serum, 96 Hrs",[3]; [7],1.76
same,"AVG drug level in serum, 240 Hrs",[3]; [7],3.00
same,"Drug level in serum, 48 Hrs",[3]; [7],0.29 and 0.24 and 3.70
same,"Drug level in serum, 96 Hrs",[3]; [7],0.99 and 1.15 and 3.13
same,"Drug level in serum, 240 Hrs",[3]; [7],2.61 and 2.36 and 4.04
same,"AVG drug level in serum, 48 Hrs",[3]; [8],0.53
same,"AVG drug level in serum, 96 Hrs",[3]; [8],2.26
same,"AVG drug level in serum, 240 Hrs",[3]; [8],5.02
same,"Drug level in serum, 48 Hrs",[3]; [8],0.48 and 0.63
same,"Drug level in serum, 96 Hrs",[3]; [8],2.09 and 2.03 and 2.66
same,"Drug level in serum, 240 Hrs",[3]; [8],5.44 and 2.03 and 5.61
same,"AVG drug level in serum, 48 Hrs",[3]; [9],2.55
same,"AVG drug level in serum, 96 Hrs",[3]; [9],2.89
same,"AVG drug level in serum, 240 Hrs",[3]; [9],6.58
same,"Drug level in serum, 48 Hrs",[3]; [9],6.35 and 0.78 and 0.52
same,"Drug level in serum, 96 Hrs",[3]; [9],2.69 and 2.89 and 3.09
same,"Drug level in serum, 240 Hrs",[3]; [9],6.31 and 6.37 and 7.06
